Patent US20230109839A1, “THERAPEUTIC AGENT FOR TAUOPATHIES” (SUMITOMO PHARMA CO., LTD., priority 2020, published 2023)
Entries after “also recorded” stand apart in the source; their conditions may differ. Read-outs that look alike come from different tables or passages of the source.

How the values were obtained:
[1] = system: phosphorylated tau oligomer; experiment: Evaluation of phosphorylated tau oligomers in brain of APP-Tg mice, Western blotting (Test 4); assay type: in vivo, mouse; settings: for Reducing effect of phosphorylated tau oligomer: 7-10 days, with ABT 1 mg/g-food
Description: Test 4: Evaluation of Phosphorylated Tau Oligomers Using APP-Tg Mice
This test is a test to quantify the oligomer of phosphorylated tau in the brain to evaluate the action of a compound. […] The APP-Tg mice used herein were prepared by the method described in Test 3.
The test compound administered with food to APP-Tg mice for 7-10 days. At this time, in order to increase the blood concentration of the test compound, ABT was used in combination with a mixed diet of 1 mg/g-food depending on the compound. After the administration, the brain was collected, and the protein is extracted from the collected brain using TBS (Tris Buffered Saline) or sarcosyl, and then SDS-PAGE (sodium dodecyl sulfate-polyacrylamide gel electrophoresis) of the soluble or insoluble fraction was performed. After that, Western blotting was performed using an anti-oligomerized tau antibody (Anti-Tau, oligomeric, clone TOMA-1), and the effect of the test compound was evaluated by quantifying the band amount of the phosphorylated tau oligomer.
The reducing effect of phosphorylated tau oligomer was calculated by the following formula, and from the calculated values, the results were defined as follows: 0-25%: +, 25-50%: ++, 50-75%: +++, and 75-100%: ++++. The significant difference from the vehicle-administered group was determined using the Student t-test. For the band amount, the value corrected by the β-actin band amount was used.
Reducing effect of phosphorylated tau oligomer={(band amount of oligomerized tau in vehicle-administered group−band amount of oligomerized tau in test compound-administered group)/band amount of oligomerized tau in vehicle-administered group}×100

human Nav1.1 = target: T1, human Nav1.1 (Homo sapiens, UniProt P35498); experiment: Amplification of Nav1.1-derived voltage-gated sodium current (Nav1.1 current), automated patch clamp (Test 1); assay type: cell-based; settings: for activation at 10 µM: HEK293, concentration for evaluation 10 μM
T1 construct: host or cells: HEK293
Outline: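 Compound-induced change in ramp-evoked sodium current peak and AUC was expressed as 100×post/pre ratio minus 100. Recordings used automated patch clamp in voltage-clamp mode on a stable human Nav1.1 HEK293 line, including only cells above 500 pA. Compounds were delivered in extracellular fluid containing 1% DMSO.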

APP-Tg mouse = experiment: Evaluation of the cognitive function by novel object recognition test (NORT) in APP-Tg mice (Test 3); assay type: in vivo; parameters: key to Discrimination index: (novel − known search time)/(novel + known search time); settings: for improvement of cognitive function (NORT) / improvement of cognitive function (NORT), summary of the above results: APP-Tg mice; for improvement of cognitive function (NORT): Elacridar orally 100 mg/kg 2 hours before, test compound intraperitoneally 30 minutes before the first trial run; for improvement of cognitive function (NORT), summary of the above results: alone, with Elacridar or with ABT depending on the compound; for Discrimination index: APP-Tg mouse, with Elacridar 100 mg/kg orally 2 hours before first trial run
Description: Test 3: Evaluation of the Cognitive Function by Novel Object Recognition Test (Hereinafter, Also Referred to as “NORT”)
The present test is for evaluating the improvement of cognitive function with the test compounds. When an APP-Tg mouse which is an AD (Alzheimer's disease) model mouse is evaluated by NORT, the memory for a familiar object decreases depending on the time interval between the first trial run (training) and the second trial run (test). For example, if the first trial run is done and 3 hours later the second one is done, there is no difference in the searching times between novel object and known object for the APP-Tg mouse, compared with a healthy mouse. Thus, the APP-Tg mouse suffers from significant amnesia.
The APP-Tg mouse used herein was prepared by constructing an expression cassette linked to human APP751 isoform to which Swedish (K670N/M671L) and Indiana (V717F) mutation were introduced at downstream of mouse Thy-1 promoter, then injecting the expression cassette into a mouse fertilized egg, and transplanting it to a host mouse. The prepared mouse presents with intracerebral AB accumulation and cognitive dysfunction from early on, and thus the mouse can be used for the evaluation of cognitive function. APP-Tg mouse has been also reported in Non-patent literature 6.
To the prepared APP-Tg mouse, the test compound was administered, and then the first trial run was done for the mouse 30 minutes after the intraperitoneal administration or after 10 days of mixed diet administration. The second trial run was done 3 hours after the first trial run, and the searching times between novel object and known object in the second trial were evaluated. The discrimination index was calculated from the searching time for novel object and known object in the second trial run, and the improvement of cognitive function of the test compound was confirmed by comparing the discrimination index with the test compound-unadministered group as an index of the cognitive function. The discrimination index was calculated by the following formula.
Discrimination index={(Searching time for novel object)−(Searching time for known object)}/{(Searching time for novel object)+(Searching time for known object)}
The present test can be also done with a combination with Elacridar (Tokyo Chemical Industry Co., Ltd.). Elacridar can inhibit P-gp and BCRP which are excretion transporters expressed in the blood-brain barrier and thereby Elacridar has the effect of improving the transferability of the test compound to the brain. Eracridal was orally administered to APP-Tg mice at 100 mg/kg 2 hours before the first trial run, and then the test compound was intraperitoneally administered to the mice 30 minutes before the first trial run according to the above method. And, the improvement of cognitive function was evaluated. The significant difference from the vehicle-administered group was determined using the parametric Dunnett multiple comparison test.
And, the present test can be also done with a combination with ABT (1-aminobenzotriazole) (Tokyo Chemical Industry Co., Ltd.). ABT has the effect of improving the blood concentration of the test compound by inhibiting CYP and suppressing metabolism. The test compound and ABT (1 mg/g-food) were administered with food to APP-Tg mice for 10 days, and then the improvement of cognitive function was evaluated according to the above method. The significant difference from the vehicle-administered group was determined using the parametric Dunnett multiple comparison test.

[2] = HEK293, Concentration for evaluation 1 μM, HEK293 cell line stably expressing human Nav1.1, read-out: Nav1.1 current amplification rate (%)
[3] = concentration for evaluation 1 μM, HEK293 stably expressing human Nav1.1
[4] = concentration for evaluation 50 μM, HEK293 stably expressing human Nav1.1
[5] = HEK293, concentration for evaluation 1 μM, HEK293 stably expressing human Nav1.1, read-out: Nav1.1 current amplification rate (%)
[6] = HEK293 stably expressing human Nav1.1, read-out: Nav1.1 current amplification rate (%)

SMILES | Nav1.1 current amplification rate (%) (human Nav1.1; [3]) | activation at 1 µM (human Nav1.1; [5]) | further results
CN(c1ccc(=O)n(CC(=O)N2CCc3c(N4CCOCC4)cccc32)n1)C1CCCC1 [Example 565, 6-[cyclopentyl(methyl)amino]-2-{2-[4-(morpholin-4-yl)-2,3-dihydro-1H-indol-1-yl]-2-oxoethyl}pyridazin-3(2H)-one] | – | – | Reducing effect of phosphorylated tau oligomer ([1]; dose 0.5 mg/g-food): +++ (50-75%: +++); Reducing effect of phosphorylated tau oligomer ([1]; dose 4.5 mg/g-food): ++ (25-50%: ++); reducing effect of tau oligomer ([1]; with food for 7-10 days, ABT 1 mg/g-food depending on the compound, brain, anti-oligomerized tau antibody TOMA-1): some reducing effect of tau oligomer; also recorded: strong reducing effect of tau oligomer
CN(c1cnc2cnn(CC(=O)Nc3ccn4ncnc4c3)c2n1)C1CCCC1 [Example 593, 2-{6-[cyclopentyl(methyl)amino]-1H-pyrazolo[3,4-b]pyrazin-1-yl}-N-([1,2,4]triazolo[1,5-a]pyridin-7-yl)acetamide] | – | – | activation at 1 µM (human Nav1.1; [2]): 78%; improvement of cognitive function (NORT) (APP-Tg mouse): some improvement of cognitive function; improvement of cognitive function (NORT), summary of the above results (APP-Tg mouse): some improvement of cognitive function; Discrimination index (APP-Tg mouse; dose 60 (mg/g i.p.)): 0.20; Discrimination index (APP-Tg mouse): 0.11
O=C(Cn1ncc2ncc(N3CCC4(CC4)C(F)(F)C3)nc21)Nc1ccn2ncnc2c1 [Example 609, 2-[6-(4,4-difluoro-6-azaspiro[2.5]octan-6-yl)-1H-pyrazolo[3,4-b]pyrazin-1-yl]-N-([1,2,4]triazolo[1,5-a]pyridin-7-yl)acetamide] | – | – | activation at 1 µM (human Nav1.1; [2]): 84%; improvement of cognitive function (NORT) (APP-Tg mouse; 100 mg/kg): some improvement of cognitive function; also recorded: strong improvement of cognitive function; improvement of cognitive function (NORT), summary of the above results (APP-Tg mouse): some improvement of cognitive function; Discrimination index (APP-Tg mouse; dose 60 (mg/g i.p.)): 0.29; Discrimination index (APP-Tg mouse): 0.29
O=C(Cn1ncc2ccc(-c3ccc(F)cc3)nc21)Nc1ccn2ccnc2c1 [Example 866] | 16% | – | –
O=C(Cn1ncc2ccc(C3=CCC(F)(F)CC3)nc21)Nc1ccn2ccnc2c1 [Example 867] | 65% | – | –
O=C(Cn1ncc2ccc(C3=CCCCO3)nc21)Nc1ccn2ccnc2c1 [Example 868] | 19% | – | –
O=C(Cn1ncc2ccc(C3=COCCC3)nc21)Nc1ccn2ccnc2c1 [Example 869] | 17% | – | –
CC1CCN(c2ccc3cnn(CC(=O)Nc4ccn5ccnc5c4)c3n2)CC1 [Example 870] | 120% | – | –
O=C(Cn1ncc2ccc(-c3ccc(F)cc3F)nc21)Nc1ccc2ncnn2c1 [Example 871] | 10% | – | –
CC1CCN(c2ccc3cnn(CC(=O)Nc4ccc5ncnn5c4)c3n2)CC1 [Example 872] | 38% | – | –
CN(CC1CCC1)c1ccc2cnn(CC(=O)Nc3ccc4ncnn4c3)c2n1 [Example 873] | 89% | – | –
CN(c1ccc2cnn(CC(=O)Nc3ccc4ncnn4c3)c2n1)C1CCCC1 [Example 875] | 43% | – | –
CC1CCN(c2ccc3cnn(CC(=O)Nc4ccc5ocnc5c4)c3n2)CC1 [Example 876] | 98% | – | –
CC1CCN(c2ccc3cnn(CC(=O)Nc4ccc5cncnc5c4)c3n2)CC1 [Example 877] | 263% | – | –
CC1CCN(c2ccc3cnn(CC(=O)Nc4ccc5cnnn5c4)c3n2)CC1 [Example 878] | 42% | – | –
CC1CCN(c2ccc3cnn(CC(=O)Nc4ccc(C(F)(F)F)nc4)c3n2)CC1 [Example 879] | – | – | Nav1.1 current amplification rate (%) (human Nav1.1; [4]): 16%
CC1CCN(c2ccc3cnn(CC(=O)Nc4ccc5nccn5n4)c3n2)CC1 [Example 880] | – | – | Nav1.1 current amplification rate (%) (human Nav1.1; [4]): 42%

SMILES | Nav1.1 current amplification rate (%) (human Nav1.1; [3]) | activation at 1 µM (human Nav1.1; [5]) | further results
CC1CC=C(c2ccc3cnn(CC(=O)N4CCN(c5cccnc5)CC4)c3n2)CC1 (stereo not shown) [Example 881] | – | 446% | –
CC1CC=C(c2ccc3cnn(CC(=O)N4CCc5c(N6CCOCC6)cccc54)c3n2)CC1 (stereo not shown) [Example 882] | – | 88% | –
CC1CC=C(c2ccc3cnn(CC(=O)Nc4ccc5ocnc5c4)c3n2)CC1 (stereo not shown) [Example 883] | – | 164% | –
O=C(Cn1ncc2ccc(-c3ccc(F)cc3F)nc21)Nc1ccc2ocnc2c1 [Example 884] | – | 34% | –
O=C(Cn1ncc2cnc(N3CCC4(CCC4)CC3)nc21)NC1=CC2N=CN=CC2C=C1 (stereo not shown) [Example 885] | – | 209% | –
Cc1cc(NC(=O)Cn2ncc3ccc(N(C)C4CC4)nc32)cc2ncnn12 [Example 886] | – | 125% | –
CN(c1ccc2cnn(CC(=O)N3CCc4c(C5CC5)cccc43)c2n1)C1CC1 [Example 887] | – | – | activation at 0.3 µM (human Nav1.1; HEK293, concentration for evaluation 0.3 μM, HEK293 stably expressing human Nav1.1, read-out: Nav1.1 current amplification rate (%)): 173%
CN(c1ccc2cnn(CC(=O)Nc3cnc4cccnc4c3)c2n1)C1CC1 [Example 888] | – | 101% | –
CN(CC1CCC1)c1ccc2cnn(CC(=O)Nc3cnc4cccnc4c3)c2n1 [Example 889] | – | 151% | –
N#Cc1ccc(NC(=O)Cn2ncc3ccc(N4CCC5(CC5)C(F)(F)C4)nc32)cn1 [Example 890] | – | 68% | –
CN(c1ccc2cnn(CC(=O)Nc3cnc4cccnc4c3)c2n1)C1CCCC1 [Example 891] | – | 81% | –
CN(c1ccc2cnn(CC(=O)Nc3ccc4ncncc4c3)c2n1)C1CCCC1 [Example 892] | – | 39% | –
CC1CC=C(c2ccc3cnn(CC(=O)N4CCN(c5cccnc5)CC4)c3c2)CC1 (stereo not shown) [Example 893] | – | – | activation at 10 µM (human Nav1.1; [6]): 31%
CC1CC=C(c2ccc3cnn(CC(=O)Nc4ccn5ccnc5c4)c3c2)CC1 (stereo not shown) [Example 894] | – | – | activation at 10 µM (human Nav1.1; [6]): 151%
CC1CC=C(c2cnc3cnn(CC(=O)Nc4ccn5ncnc5c4)c3n2)CC1 (stereo not shown) [Example 895, 2-[6-(4-methylcyclohex-1-en-1-yl)-1H-pyrazolo[3,4-b]pyrazin-1-yl]-N-([1,2,4]triazolo[1,5-a]pyridin-7-yl)acetamide] | – | 244% | –
CC1CC=C(c2cnc3cnn(CC(=O)Nc4ccn5ncnc5c4)c3n2)CC1 (stereo not shown) [Example 896, 2-[6-(4-methylcyclohex-1-en-1-yl)-1H-pyrazolo[3,4-b]pyrazin-1-yl]-N-([1,2,4]triazolo[1,5-a]pyridin-7-yl)acetamide] | 241% | – | –
